Measured values reported in patent publication US20060198832A1, “Peptide drugs for chronic lymphocytic leukemia (CLL) and other cancers” (priority 2004, published 2006).
Bridges are numbered along the chain shown (N, C = ends). Roman numbers before positions name the chains, in order. Where no end group is shown, it is not given here.

Assays:
[1] = test system: chronic lymphocytic leukemia (CLL) cells; experiment: viability/apoptosis of CLL cells electroporated with peptides (Annexin V-FITC/PI flow cytometry); type: cell-based, human
Description: Peripheral blood mononuclear cells (PBMC) from patients with chronic lymphocytic leukemia (CLL) were obtained from the CLL Research Consortium (CRC) tissue bank. Briefly, heparinized peripheral blood was obtained from patients diagnosed with B-CLL according to standard criteria (Chenson et al., Blood 87:4990-4997 (1996)). Lymphocytes were isolated by Ficoll density-gradient centrifugation and verified by immunofluorescence flow cytometry to be composed of greater than 95% CD5/CD19/CD23 triple positive B cells. […] CLL cells were electroporated with a dimethyl sulfoxide (DMSO) control or peptides essentially as described in […] et al., J. Immunol. Methods 275:41-56 (2003), and […] et al., Cancer Res. 63:1242-1248 (2003). For evaluation of apoptosis, at least 5×10^5 cells were recovered by centrifugation and double-stained with Annexin V-FITC, an early marker of apoptosis, and propidium iodide (PI), a nucleic acid-binding vital dye, followed by flow-cytometric analysis using the FL-1 and FL-3 channels of a Becton Dickinson flow cytometer (FACSort; San Jose, Calif.).

GST-Bcl2(1-205) = target: T1, GST-Bcl2(1-205) (Homo sapiens, UniProt P10415); experiment: competition ELISA for binding of BAD peptides to Bcl-2; conditions: FIG. 1
T1 construct: 50 ng GST-Bcl2(1-205; Santa Cruz Biotechnology; Santa Cruz, Calif.); purchased Santa Cruz Biotechnology
T1 sequence (P10415 1-205): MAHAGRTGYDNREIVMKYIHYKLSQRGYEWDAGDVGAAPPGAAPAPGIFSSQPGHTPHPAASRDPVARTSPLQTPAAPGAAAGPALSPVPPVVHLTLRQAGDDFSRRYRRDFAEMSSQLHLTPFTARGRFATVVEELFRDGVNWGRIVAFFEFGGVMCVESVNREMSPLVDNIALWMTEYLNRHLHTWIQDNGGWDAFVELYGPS
Description: To determine binding affinity to Bcl-2, competition ELISA assays were performed essentially as described in Cabezas et al., supra, 2001, with the following components. Briefly, acetyl-Cys(biotin-BMCC)-Ahx-Bad peptide (50 ng peptide/50 μl ELISA buffer) was adsorbed to 96-well neutraAvidin coated microtiter plates. Competition peptides were subsequently mixed with 50 ng GST-Bcl2(1-205; Santa Cruz Biotechnology; Santa Cruz, Calif.) in 50 μl ELISA buffer per titer well and incubated for one hour at 37° C. Wells were washed and treated with 50 μl of a 1/4000 dilution of anti-GST Mab 7E5 (from ascites fluid provided by Shinichi Kitada) in ELISA buffer for one hour at 37° C. Quantification of peptide-bound GST-Bcl2/Mab7E5 complex was carried out with alkaline-phosphatase-conjugated goat […] and p-nitrophenylphosphate substrate as described in Cabezas et al., supra, 2001.

697-neo cells = experiment: cell viability assay in 697-neo cells; type: cell-based; conditions: low Bcl-2, FIG. 6
Description: (§1) The peptides were tested in cell viability assays essentially as described above in Examples I and II. Experiments were carried out in 697-neo and 697-Bcl-2 cells. 697 cells are from a cell line of preB leukemic cells. 697-Bcl-2 cells have been engineered to express high levels of Bcl-2. AML-349 and AML-728 are myeloblasts (verified by FACS analysis via CD34-positivity) that were isolated from respective patients with acute myelogenous leukemia (AML).

Bcl-2 family Bcl-2/x1 = Bcl-2 family Bcl-2/x1 (Homo sapiens, UniProt P10415); experiment: binding of penetratin-linked peptides to Bcl-2 (method not described)
Chain of Bcl-2 family Bcl-2/x1 (P10415 1-205): as above

697-Bcl-2 cells = experiment: cell viability assay in 697-Bcl-2 cells; type: cell-based; conditions: 697-Bcl2 cells with higher levels of Bcl-2, FIG. 6 and 7
Description: as §1

[2] = test system: acute myelogenous leukemia (AML) cells; experiment: cell viability/apoptosis in patient AML cells; type: cell-based, human
Description: as §1

| binding to Bcl-2 (Bcl-2 family Bcl-2/x1) | Substance | cell viability (Induction of Apoptosis in CLL Cells), patient sample JCB 178 ([1]; CLL patient sample JCB 178, peptide electroporated) [%] | cell viability (Induction of Apoptosis in CLL Cells), patient sample MA G15 ([1]; CLL patient sample MA G15, peptide electroporated) [%] | cell viability (Induction of Apoptosis in CLL Cells), patient sample TJK 328 ([1]; CLL patient sample TJK 328, peptide electroporated) [%] | cell viability (Induction of Apoptosis in CLL Cells), patient sample TJK 340 #1 ([1]; CLL patient sample TJK 340 #1, peptide electroporated) [%] | cell viability (Induction of Apoptosis in CLL Cells), patient sample TJK 340 #2 ([1]; CLL patient sample TJK 340 #2, peptide electroporated) [%] | cell viability (Induction of Apoptosis in CLL Cells), patient sample TJK 375 ([1]; CLL patient sample TJK 375, peptide electroporated) [%] | cell viability (Induction of Apoptosis in CLL Cells), Av. ([1]; average of the five preceding patient sample columns, peptide electroporated) [%] | cell viability of CLL cells ([1]; electroporated peptide, FIG. 2) | cell viability in all the patient CLL samples ([1]; electroporated peptide, summary of Table 4) | binding affinity for Bcl-2 compared to wild type BAD peptide (GST-Bcl2(1-205)) | activity in reducing cell viability (697-neo cells) | amount of peptide needed to kill cells (697-Bcl-2 cells) | induction of apoptosis / killing ([2]; AML cells of patient AML-349, FIG. 9) | induction of apoptosis ([2]; AML cells of patient AML-728, FIG. 8) |
| --- | --- | --- | --- | --- | --- | --- | --- | --- | --- | --- | --- | --- | --- | --- | --- |
| – | NLWAAQRYGRELRRMADEFVDAFKK [SEQ ID NO: 2] | 12 | 2 | 10 | 12 | 12 | 22 | 14 | significantly reduced | dramatically reduced | significantly higher binding affinity for Bcl-2 than the wild type BAD peptide | – | – | – | – |
| binds Bcl-2 | acetyl-NLWAAQRYGRELRRMADEFVDAFKKC-CRQIKIWFQNRRMKWKK-amide [2335] (peptide 1 Ac-NLWAAQRYGRELRRMADEFVDAFKKC; peptide 2 CRQIKIWFQNRRMKWKK-NH2; disulfide I:26-II:1) [compound 2335, Bad 2Ser/Ala peptide disulfide linked to penetratin-1] | – | – | – | – | – | – | – | – | – | – | more active in 697-neo cells with low Bcl-2 than a 2336 control peptide | it takes more 2335 to kill 697 cells with higher levels of Bcl-2 | induced apoptosis | induced apoptosis |
